Experimental data reported in ChEMBL document CHEMBL3994655, “Methylsulfonyl benzothiazoles (MSBT) derivatives: Search for new potential antimicrobial and anticancer agents” (2017).
Converted amounts (≈) assume the structure as drawn. Counter-ions that a name gives are not always drawn.

Tests used:
[1] = system: HeLa; assay: Growth inhibition of human HeLa cells after 48 hrs by SRB assay; type: functional
[2] = system: Escherichia coli; assay: Antibacterial activity against Escherichia coli ATCC 35421 assessed as zone of inhibition at 5 mg/ml by agar well diffusion method; type: functional; conditions: read-out: DIZ
[3] = system: HeLa; assay: Cytotoxicity against human HeLa cells assessed as cell growth at 10^-4 M after 48 hrs by SRB assay relative to control; type: functional; conditions: read-out: Activity
[4] = system: Staphylococcus aureus; assay: Antibacterial activity against methicillin-resistant Staphylococcus aureus ATCC 33591 after 24 to 48 hrs by macro-broth dilution method; type: functional
[5] = system: Staphylococcus aureus; assay: Antibacterial activity against Staphylococcus aureus 209P assessed as zone of inhibition at 5 mg/ml by agar well diffusion method; type: functional; conditions: read-out: DIZ
[6] = system: HeLa; assay: Cytotoxicity against human HeLa cells assessed as cell growth at 10^-7 M after 48 hrs by SRB assay relative to control; type: functional; conditions: read-out: Activity
[7] = system: HeLa; assay: Cytotoxicity against human HeLa cells assessed as cell growth at 10^-5 M after 48 hrs by SRB assay relative to control; type: functional; conditions: read-out: Activity
[8] = system: Staphylococcus epidermidis; assay: Antibacterial activity against Staphylococcus epidermidis 209E after 24 to 48 hrs by macro-broth dilution method; type: functional
[9] = system: HeLa; assay: Cytotoxicity against human HeLa cells assessed as cell growth at 10^-6 M after 48 hrs by SRB assay relative to control; type: functional; conditions: read-out: Activity
[10] = system: Candida albicans; assay: Antifungal activity against Candida albicans A01 assessed as zone of inhibition at 5 mg/ml by agar well diffusion method; type: functional; conditions: read-out: DIZ
[11] = system: Escherichia coli; assay: Antibacterial activity against Escherichia coli ATCC 35421 assessed as zone of inhibition at 1 mg/ml by agar well diffusion method; type: functional; conditions: read-out: DIZ
[12] = system: Pseudomonas aeruginosa; assay: Antibacterial activity against Pseudomonas aeruginosa M5 after 24 to 48 hrs by macro-broth dilution method; type: functional
[13] = system: Candida albicans; assay: Antifungal activity against Candida albicans A01 assessed as zone of inhibition at 1 mg/ml by agar well diffusion method; type: functional; conditions: read-out: DIZ
[14] = system: Staphylococcus aureus; assay: Antibacterial activity against methicillin-resistant Staphylococcus aureus 3710 after 24 to 48 hrs by macro-broth dilution method; type: functional
[15] = system: Escherichia coli; assay: Antibacterial activity against Escherichia coli ATCC 35421 after 24 to 48 hrs by macro-broth dilution method; type: functional
[16] = system: Staphylococcus aureus; assay: Antibacterial activity against Staphylococcus aureus 209P assessed as zone of inhibition at 1 mg/ml by agar well diffusion method; type: functional; conditions: read-out: DIZ
[17] = system: Escherichia coli; assay: Antibacterial activity against Escherichia coli ATCC 20732 after 24 to 48 hrs by macro-broth dilution method; type: functional
[18] = system: Staphylococcus aureus; assay: Antibacterial activity against Staphylococcus aureus 209P after 24 to 48 hrs by macro-broth dilution method; type: functional
[19] = system: HeLa; assay: Cytotoxicity against human HeLa cells assessed as reduction in cell viability after 48 hrs by SRB assay; type: functional, cell-based

Row | Compound | zone of inhibition at 5000 µg/mL [2] [mm] | zone of inhibition at 5000 µg/mL [5] [mm] | zone of inhibition at 5000 µg/mL [10] [mm] | zone of inhibition at 1000 µg/mL [11] [mm] | zone of inhibition at 1000 µg/mL [13] [mm] | zone of inhibition at 1000 µg/mL [16] [mm] | also measured
1 | CCOc1ccc2sc(S(C)(=O)=O)nc2c1S(=O)(=O)NC(C)(C)C | 10 | 13 | ≤ 7 | 9 | ≤ 7 | ≤ 7 | GI50 [1]: 0.6 µM; LC50 [1]: 76.6 µM; TGI [1]: 38.6 µM; growth inhibition (GI) [1]: Dose-dependent effect; growth at 100 µM [3]: -76.3%; MIC [4]: 10 µg/mL (≈ 25.5 µM); growth at 0.1 µM [6]: 97.9%; growth at 10 µM [7]: -6.7%; MIC [8]: 10 µg/mL (≈ 25.5 µM); growth at 1 µM [9]: 42.1%; MIC [12]: 50 µg/mL (≈ 127 µM); MIC [14]: 10 µg/mL (≈ 25.5 µM); MIC [15]: 20 µg/mL (≈ 51 µM); MIC [17]: 20 µg/mL (≈ 51 µM); MIC [18]: 8 µg/mL (≈ 20.4 µM); Activity [19]: Dose-dependent effect
2 | COc1cccc2c1C(=O)c1c(O)c3c(c(O)c1C2=O)C[C@@](O)(C(=O)CO)C[C@@H]3O[C@H]1C[C@H](N)[C@H](O)[C@H](C)O1 [DOXORUBICIN HYDROCHLORIDE] | – | – | – | – | – | – | GI50 [1]: < 0.1 µM; TGI [1]: < 0.1 µM; growth at 100 µM [3]: -84.6%; growth at 0.1 µM [6]: -76.8%; growth at 10 µM [7]: -84.1%; growth at 1 µM [9]: -82.9%
3 | CCOc1ccc2sc(S(C)(=O)=O)nc2c1S(=O)(=O)Cl | ≤ 7 | ≤ 7 | ≤ 7 | ≤ 7 | ≤ 7 | ≤ 7 | –
4 | CCOc1ccc2sc(S(C)(=O)=O)nc2c1S(=O)(=O)NC(CC)CC | 10 | 21 | ≤ 7 | 9 | ≤ 7 | 13 | GI50 [1]: 19.5 µM; LC50 [1]: 87.4 µM; TGI [1]: 53.5 µM; growth inhibition (GI) [1]: Dose-dependent effect; growth at 100 µM [3]: -65.8%; MIC [4]: 100 µg/mL (≈ 246 µM); growth at 0.1 µM [6]: 91.8%; growth at 10 µM [7]: 35.6%; MIC [8]: 50 µg/mL (≈ 123 µM); growth at 1 µM [9]: 89.4%; MIC [12]: 100 µg/mL (≈ 246 µM); MIC [14]: 100 µg/mL (≈ 246 µM); MIC [15]: 50 µg/mL (≈ 123 µM); MIC [17]: 50 µg/mL (≈ 123 µM); MIC [18]: 50 µg/mL (≈ 123 µM); Activity [19]: Dose-dependent effect
5 | CCOc1ccc2sc(S(C)(=O)=O)nc2c1S(=O)(=O)NC1CC1 | ≤ 7 | ≤ 7 | ≤ 7 | ≤ 7 | ≤ 7 | ≤ 7 | –
6 | CS(=O)(=O)c1nc2cc(O)ccc2s1 | ≤ 7 | ≤ 7 | ≤ 7 | ≤ 7 | ≤ 7 | ≤ 7 | –
7 | CCOc1ccc2sc(S(C)(=O)=O)nc2c1S(=O)(=O)NC(C)C | ≤ 7 | ≤ 7 | ≤ 7 | ≤ 7 | ≤ 7 | ≤ 7 | –
8 | CCOc1ccc2sc(Cl)nc2c1 | ≤ 7 | ≤ 7 | ≤ 7 | ≤ 7 | ≤ 7 | ≤ 7 | –
9 | CCOc1ccc2sc(S(C)(=O)=O)nc2c1NC(=O)CNC(C)C | ≤ 7 | ≤ 7 | ≤ 7 | ≤ 7 | ≤ 7 | ≤ 7 | –
10 | CCOc1ccc2sc(S(C)(=O)=O)nc2c1S(=O)(=O)NC | ≤ 7 | ≤ 7 | ≤ 7 | ≤ 7 | ≤ 7 | ≤ 7 | –
11 | CCOc1ccc2sc(S(C)(=O)=O)nc2c1NC(=O)CNCN1CCCC1 | ≤ 7 | ≤ 7 | ≤ 7 | ≤ 7 | ≤ 7 | ≤ 7 | –
12 | O=C(O)c1cn(C2CC2)c2cc(N3CCNCC3)c(F)cc2c1=O [CIPROFLOXACIN] | – | – | – | – | – | – | MIC [8]: 8 µg/mL (≈ 24.1 µM); MIC [18]: 8 µg/mL (≈ 24.1 µM)
13 | CCOc1ccc2sc(S(C)(=O)=O)nc2c1S(=O)(=O)N1CCO[C@H](COc2ccccc2)C1 | ≤ 7 | 9 | ≤ 7 | ≤ 7 | ≤ 7 | ≤ 7 | –
14 | CS(=O)(=O)c1nc2cc(OCc3ccc(OCc4ccccc4)cc3)ccc2s1 | ≤ 7 | ≤ 7 | ≤ 7 | ≤ 7 | ≤ 7 | ≤ 7 | –
15 | CCOc1ccc2sc(S(C)(=O)=O)nc2c1S(=O)(=O)Nc1ccc(Cl)c(Cl)c1 | ≤ 7 | ≤ 7 | ≤ 7 | ≤ 7 | ≤ 7 | ≤ 7 | –
16 | CCNS(=O)(=O)c1c(OCC)ccc2sc(S(C)(=O)=O)nc12 | ≤ 7 | ≤ 7 | ≤ 7 | ≤ 7 | ≤ 7 | ≤ 7 | –
17 | CCOc1ccc2sc(S(C)(=O)=O)nc2c1NC(=O)CNCN1CCN(C(=O)OC(C)(C)C)CC1 | ≤ 7 | 8 | ≤ 7 | ≤ 7 | ≤ 7 | ≤ 7 | –
18 | CS(=O)(=O)c1nc2cc(OCc3ccc(-c4ccccc4)cc3)ccc2s1 | ≤ 7 | ≤ 7 | ≤ 7 | ≤ 7 | ≤ 7 | ≤ 7 | –
19 | CC(=O)NC[C@H]1CN(c2ccc(N3CCOCC3)c(F)c2)C(=O)O1 [LINEZOLID] | – | – | – | – | – | – | MIC [8]: 1 µg/mL (≈ 2.96 µM); MIC [18]: 1 µg/mL (≈ 2.96 µM)
20 | CCOc1ccc2sc(S(C)(=O)=O)nc2c1S(=O)(=O)O | ≤ 7 | ≤ 7 | 9 | ≤ 7 | ≤ 7 | ≤ 7 | –
21 | CCOc1ccc2sc(S(C)(=O)=O)nc2c1NC(=O)CN1CCOCC1 | ≤ 7 | ≤ 7 | ≤ 7 | ≤ 7 | ≤ 7 | 9 | –
22 | CCOc1ccc2sc(S(C)(=O)=O)nc2c1S(=O)(=O)NCc1ccccc1 | ≤ 7 | ≤ 7 | 9 | ≤ 7 | ≤ 7 | ≤ 7 | –
23 | CCOc1ccc2sc(S(C)(=O)=O)nc2c1 | ≤ 7 | 8 | ≤ 7 | ≤ 7 | ≤ 7 | ≤ 7 | –
24 | GENTAMICIN | – | – | – | – | – | – | MIC [12]: 2 µg/mL; MIC [15]: 1 µg/mL; MIC [17]: 1 µg/mL
25 | CS(=O)(=O)c1nc2cc(OCc3ccccc3)ccc2s1 | ≤ 7 | ≤ 7 | ≤ 7 | ≤ 7 | ≤ 7 | 8 | –
26 | CCOc1ccc2sc(S(C)(=O)=O)nc2c1NC(=O)CCl | ≤ 7 | ≤ 7 | ≤ 7 | ≤ 7 | ≤ 7 | ≤ 7 | –
27 | CCCNS(=O)(=O)c1c(OCC)ccc2sc(S(C)(=O)=O)nc12 | ≤ 7 | ≤ 7 | ≤ 7 | ≤ 7 | ≤ 7 | ≤ 7 | –
28 | CCOc1ccc2sc(S(C)(=O)=O)nc2c1[N+](=O)[O-] | ≤ 7 | 8 | ≤ 7 | ≤ 7 | ≤ 7 | ≤ 7 | –
29 | CCOc1ccc2sc(S(C)(=O)=O)nc2c1S(=O)(=O)Nc1ccc(Br)cc1 | 10 | 11 | ≤ 7 | 9 | ≤ 7 | 9 | GI50 [1]: 6.8 µM; LC50 [1]: 74.5 µM; TGI [1]: 40.6 µM; growth inhibition (GI) [1]: Dose-dependent effect; growth at 100 µM [3]: -82.3%; growth at 0.1 µM [6]: 95.9%; growth at 10 µM [7]: -11.2%; growth at 1 µM [9]: 73.7%; Activity [19]: Dose-dependent effect
